{"source": "patent US9765085B2", "about": "“SHIP1 modulators and methods related thereto” (Aquinox Pharmaceuticals (Canada) Inc., priority 2013, dated 2017)"}
{"molecular_target": "T1, His-hSHIP1 enzyme (Homo sapiens, UniProt Q92835)", "T1 construct": "His", "T1 sequence (Q92835 1-1189)": "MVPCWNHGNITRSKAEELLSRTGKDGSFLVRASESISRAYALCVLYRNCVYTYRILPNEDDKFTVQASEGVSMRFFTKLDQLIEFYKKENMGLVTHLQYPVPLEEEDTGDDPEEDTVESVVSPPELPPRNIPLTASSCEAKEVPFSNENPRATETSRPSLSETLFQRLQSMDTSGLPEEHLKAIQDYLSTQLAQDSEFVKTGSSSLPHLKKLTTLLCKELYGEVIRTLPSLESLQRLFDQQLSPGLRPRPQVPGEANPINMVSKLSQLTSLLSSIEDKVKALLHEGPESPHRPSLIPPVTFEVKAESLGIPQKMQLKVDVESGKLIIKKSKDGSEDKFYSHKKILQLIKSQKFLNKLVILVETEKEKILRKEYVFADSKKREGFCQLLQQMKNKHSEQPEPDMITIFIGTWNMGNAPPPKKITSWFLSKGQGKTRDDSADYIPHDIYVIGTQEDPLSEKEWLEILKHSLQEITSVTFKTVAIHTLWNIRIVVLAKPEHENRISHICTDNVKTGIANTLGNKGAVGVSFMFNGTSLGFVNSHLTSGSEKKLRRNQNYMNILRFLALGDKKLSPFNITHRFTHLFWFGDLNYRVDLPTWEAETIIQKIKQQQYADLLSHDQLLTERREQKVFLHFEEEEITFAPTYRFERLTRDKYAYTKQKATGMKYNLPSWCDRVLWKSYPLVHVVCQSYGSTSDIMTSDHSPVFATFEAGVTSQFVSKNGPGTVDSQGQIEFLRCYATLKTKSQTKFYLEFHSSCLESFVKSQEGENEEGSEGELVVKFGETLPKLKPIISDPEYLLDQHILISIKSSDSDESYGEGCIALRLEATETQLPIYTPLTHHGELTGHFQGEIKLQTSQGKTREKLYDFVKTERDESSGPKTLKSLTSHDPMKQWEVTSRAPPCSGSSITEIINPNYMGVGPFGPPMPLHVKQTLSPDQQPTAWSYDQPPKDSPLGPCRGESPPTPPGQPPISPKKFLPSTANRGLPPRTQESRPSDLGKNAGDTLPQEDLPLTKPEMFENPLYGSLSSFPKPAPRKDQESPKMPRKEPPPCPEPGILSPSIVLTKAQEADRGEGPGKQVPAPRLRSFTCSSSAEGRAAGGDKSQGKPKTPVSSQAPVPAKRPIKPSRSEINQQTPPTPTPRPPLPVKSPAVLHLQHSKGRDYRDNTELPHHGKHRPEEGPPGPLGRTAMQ", "experiment": "His-hSHIP1 activity (phosphatase assay, IP4 substrate, Biomol Green)", "type": "biochemical", "set-up": "key: +++: higher than reference or reference - 15%; ++: reference - 16% to reference - 30%; +: reference - 31% or lower; −: inhibitor", "conditions": "ratio of initial velocities (IP4 25/IP4 250 μM final) compared with a reference SHIP1 activator; 37° C.", "experimental": "Test compounds are dissolved in 95% ethanol to form stock solutions. Before screening, the stock solutions are diluted with Phosphatase Assay Buffer (20 mM Tris-HCL, 10 mM MgCl2 pH 7.5, 0.02% Tween 20) to form working assay solutions that contain 10% ethanol. The assay is carried out on 96-well microtiter plates using a modified procedure of that reported by Ong et al., Blood 110, 1942-1949, 2007 and Yang et al., Org Lett 7, 1073-1076, 2005, both of which references are incorporated herein by reference in their entirety.\nA master mix is prepared that contains 50 μL of His-hSHIP1 enzyme (0.4-1.6 ng/μL final), 25 μL of the substrate, IP4 (25 or 250 μM final), and 50 μL of test compound in 3.3% ethanol ([…]). Control blanks are also prepared by replacing His-hSHIP1 enzyme, IP4, or test compounds with Phosphate Assay Buffer. […] Each reaction component is preincubated at 37° C. for 30 min before adding to a 96-well microtiter plate. The master mix is then incubated at 37° C. At time 0, 20, 25 and 30 min, 25 μL of the master mix is removed and transferred to a new 96-well microtiter plate, to which 100 μL of Biomol Green Reagent is added to stop the reaction. After incubating the mixture for 20 min at room temperature for color development, the absorbance is read with SpectraMax Plus 96-well plate reader at a wavelength of 650 nm. Phosphate released is plotted against time to calculate the initial velocities (i.e., slope of the graph) at each IP4 concentration. The initial velocities are baseline corrected and the ratio of initial velocities (IP425/IP4250) is calculated and used to rate the test compounds.\nThe compound numbers in Table 2 correspond to the compound numbers in Table 1 above. Scoring of the compound is expressed as follows: […]"}
{"compound": "CC1(C)CCC2=C1CC[C@H]([C@@]1(C)CC[C@H](O)C[C@@H]1CO)[C@H]2CNC(=O)c1cccnc1", "note": "[compound 1, N-(((4R,5S)-5-((1R,2S,4S)-4-hydroxy-2-(hydroxymethyl)-1-methylcyclohexyl)-1,1-dimethyl-2,3,4,5,6,7-hexahydro-1H-inden-4-yl)methyl)nicotinamide]", "Scoring (Initial Velocity Ratio)": "+"}
{"compound": "CN/C(=N\\C#N)NC[C@H]1C2=C(CC[C@@H]1[C@@]1(C)CC[C@H](O)C[C@@H]1CO)C(C)(C)CC2", "note": "[compound 3, (E)-2-cyano-1-(((4R,5S)-5-((1R,2S,4S)-4-hydroxy-2-(hydroxymethyl)-1-methylcyclohexyl)-1,1-dimethyl-2,3,4,5,6,7-hexahydro-1H-inden-4-yl)methyl)-3-methylguanidine]", "Scoring (Initial Velocity Ratio)": "++"}
{"compound": "C[C@]1([C@H]2CC[C@]3(C)c4ncccc4C[C@H]3[C@@H]2CN)CC[C@H](O)C[C@@H]1CO", "note": "[compound 9, (1S,3S,4R)-4-((5aS,6R,7S,9aS)-6-(aminomethyl)-9a-methyl-5a,6,7,8,9,9a-hexahydro-5H-indeno[1,2-b]pyridin-7-yl)-3-(hydroxymethyl)-4-methylcyclohexanol]", "Scoring (Initial Velocity Ratio)": "++"}
{"compound": "C[C@]1([C@H]2CC[C@]3(C)C(c4ccccc4)=CC[C@H]3[C@@H]2CN)CC[C@H](O)C[C@@H]1CO.Cl", "note": "[compound 10, (1S,3S,4R)-4-((3aS,6S,7R,7aS)-7-(aminomethyl)-3a-methyl-3-phenyl-3a,4,5,6,7,7a-hexahydro-1H-inden-6-yl)-3-(hydroxymethyl)-4-methylcyclohexanol hydrochloride]", "Scoring (Initial Velocity Ratio)": "++"}
{"compound": "CC(=O)O.CC1(C2CCC3(C)C(CCC3(O)c3ccccc3)C2CN)CCC(O)CC1CO", "note": "[compound 11, (1S,3aS,4R,5S,7aS)-4-(aminomethyl)-5-((1R,2S,4S)-4-hydroxy-2-(hydroxymethyl)-1-methylcyclohexyl)-7a-methyl-1-phenyloctahydro-1H-inden-1-ol acetate]", "Scoring (Initial Velocity Ratio)": "−"}
{"compound": "C[C@]1([C@H]2CC[C@@]3(C)[C@@H](CC[C@@]3(O)c3ccco3)[C@@H]2CN)CC[C@H](O)C[C@@H]1CO", "note": "[compound 12, (1S,3aS,4R,5S,7aS)-4-(aminomethyl)-1-(furan-2-yl)-5-((1R,2S,4S)-4-hydroxy-2-(hydroxymethyl)-1-methylcyclohexyl)-7a-methyloctahydro-1H-inden-1-ol]", "Scoring (Initial Velocity Ratio)": "+++"}
{"compound": "C[C@]1([C@H]2CC[C@]3(C)C(c4ccco4)=CC[C@H]3[C@@H]2CN)CC[C@H](O)C[C@@H]1CO", "note": "[compound 13, (1S,3S,4R)-4-((3aS,6S,7R,7aS)-7-(aminomethyl)-3-(furan-2-yl)-3a-methyl-3a,4,5,6,7,7a-hexahydro-1H-inden-6-yl)-3-(hydroxymethyl)-4-methylcyclohexanol]", "Scoring (Initial Velocity Ratio)": "+"}
{"compound": "C[C@]1([C@H]2CC[C@]3(C)C(c4cccs4)=CC[C@H]3[C@@H]2CN)CC[C@H](O)C[C@@H]1CO", "note": "[compound 16, (1S,3S,4R)-4-((3aS,6S,7R,7aS)-7-(aminomethyl)-3a-methyl-3-(thiophen-2-yl)-3a,4,5,6,7,7a-hexahydro-1H-inden-6-yl)-3-(hydroxymethyl)-4-methylcyclohexanol]", "Scoring (Initial Velocity Ratio)": "+"}
{"compound": "C[C@]1([C@H]2CC[C@@]3(C)[C@@H](CC[C@@]3(O)c3ccccn3)[C@@H]2CN)CC[C@H](O)C[C@@H]1CO", "note": "[compound 17, (1S,3aS,4R,5S,7aS)-4-(aminomethyl)-5-((1R,2S,4S)-4-hydroxy-2-(hydroxymethyl)-1-methylcyclohexyl)-7a-methyl-1-(pyridin-2-yl)octahydro-1H-inden-1-ol]", "Scoring (Initial Velocity Ratio)": "−"}
{"compound": "C[C@]1([C@H]2CCC3=C(C[C@@H](O)[C@@]3(C)c3ccccc3)[C@@H]2CN)CC[C@H](O)C[C@@H]1CO", "note": "[compound 19, (1S,2R,4R,5S)-4-(aminomethyl)-5-((1R,2S,4S)-4-hydroxy-2-(hydroxymethyl)-1-methylcyclohexyl)-1-methyl-1-phenyl-2,3,4,5,6,7-hexahydro-1H-inden-2-ol]", "Scoring (Initial Velocity Ratio)": "++"}
{"compound": "C[C@]1([C@H]2CC[C@@]3(C)[C@@H](CC[C@@]3(O)c3nccs3)[C@@H]2CN)CC[C@H](O)C[C@@H]1CO", "note": "[compound 20, (1S,3aS,4R,5S,7aS)-4-(aminomethyl)-5-((1R,2S,4S)-4-hydroxy-2-(hydroxymethyl)-1-methylcyclohexyl)-7a-methyl-1-(thiazol-2-yl)octahydro-1H-inden-1-ol]", "Scoring (Initial Velocity Ratio)": "++"}
{"compound": "C=C1CC[C@H]2[C@H](CO)[C@@H]([C@@]3(C)Cc4cn[nH]c4C[C@@H]3CO)CC[C@]12C", "note": "[compound 21, ((3aS,4R,5S,7aS)-5-((5R,6S)-6-(hydroxymethyl)-5-methyl-4,5,6,7-tetrahydro-1H-indazol-5-yl)-7a-methyl-1-methyleneoctahydro-1H-inden-4-yl)methanol]", "Scoring (Initial Velocity Ratio)": "+"}
{"compound": "C=C1CC[C@H]2[C@H](CO)[C@@H]([C@@]3(C)Cc4conc4C[C@@H]3CO)CC[C@]12C", "note": "[compound 22, ((3aS,4R,5S,7aS)-5-((5R,6S)-6-(hydroxymethyl)-5-methyl-4,5,6,7-tetrahydrobenzo[c]isoxazol-5-yl)-7a-methyl-1-methyleneoctahydro-1H-inden-4-yl)methanol]", "Scoring (Initial Velocity Ratio)": "++"}
{"compound": "CC1(C)CCC2=C1CC[C@H]([C@@]1(C)Cc3cnoc3C[C@@H]1CO)[C@H]2CO", "note": "[compound 23, ((5R,6S)-5-((4R,5S)-4-(hydroxymethyl)-1,1-dimethyl-2,3,4,5,6,7-hexahydro-1H-inden-5-yl)-5-methyl-4,5,6,7-tetrahydrobenzo[d]isoxazol-6-yl)methanol]", "Scoring (Initial Velocity Ratio)": "+++"}
{"compound": "C=C1CC[C@H]2[C@H](CO)[C@@H]([C@@]3(C)Cc4sc(C)nc4C[C@@H]3CO)CC[C@]12C", "note": "[compound 24, ((3aS,4R,5S,7aS)-5-((5S,6R)-5-(hydroxymethyl)-2,6-dimethyl-4,5,6,7-tetrahydrobenzo[d]thiazol-6-yl)-7a-methyl-1-methyleneoctahydro-1H-inden-4-yl)methanol]", "Scoring (Initial Velocity Ratio)": "++"}
{"compound": "C[C@]1([C@H]2CC[C@]3(C)C(c4ccccc4)=CC[C@H]3[C@@H]2CO)CC[C@H](O)C[C@@H]1CO", "note": "[compound 25, (1S,3S,4R)-3-(hydroxymethyl)-4-((3aS,6S,7R,7aS)-7-(hydroxymethyl)-3a-methyl-3-phenyl-3a,4,5,6,7,7a-hexahydro-1H-inden-6-yl)-4-methylcyclohexanol]", "Scoring (Initial Velocity Ratio)": "++"}
{"compound": "C[C@]1([C@H]2CC[C@@]3(C)[C@@H](CC[C@@]3(O)c3ccccc3)[C@@H]2CO)CC[C@H](O)C[C@@H]1CO", "note": "[compound 26, (1S,3aS,4R,5S,7aS)-5-((1R,2S,4S)-4-hydroxy-2-(hydroxymethyl)-1-methylcyclohexyl)-4-(hydroxymethyl)-7a-methyl-1-phenyloctahydro-1H-inden-1-ol]", "Scoring (Initial Velocity Ratio)": "−"}
